Reference: ChEMBL document CHEMBL1201861, “Genomics of Drug Sensitity in Cancer screening data, Wellcome Trust Sanger Institute”

What was measured:
Assay in all cases: cells
8-MG-BA = format: functional, cell-based, Homo sapiens; settings: Homo sapiens, 8-MG-BA
Description: SANGER: Inhibition of human 8-MG-BA cell growth in a cell viability assay.

A498 = format: functional, cell-based, Homo sapiens; settings: Homo sapiens, A498
Description: SANGER: Inhibition of human A498 cell growth in a cell viability assay.

D283 Med = format: functional, cell-based, Homo sapiens; settings: Homo sapiens, D283 Med
Description: SANGER: Inhibition of human D-283MED cell growth in a cell viability assay.

TE-1 = format: functional, cell-based, Homo sapiens; settings: Homo sapiens, TE-1
Description: SANGER: Inhibition of human TE-1 cell growth in a cell viability assay.

LS-411N = format: functional, cell-based, Homo sapiens; settings: Homo sapiens, LS-411N
C2BBe1 = format: functional, cell-based, Homo sapiens; settings: Homo sapiens, C2BBe1
Description: SANGER: Inhibition of human C2BBe1 cell growth in a cell viability assay.

SJSA-1 = format: functional, cell-based, Homo sapiens; settings: Homo sapiens, SJSA-1
Description: SANGER: Inhibition of human SJSA-1 cell growth in a cell viability assay.

A3-KAW = format: functional, cell-based, Homo sapiens; settings: Homo sapiens, A3-KAW
Description: SANGER: Inhibition of human A3-KAW cell growth in a cell viability assay.

D-247MG = format: functional, cell-based; settings: Homo sapiens
Description: SANGER: Inhibition of human D-247MG cell growth in a cell viability assay.

NCI-N87 = format: functional, cell-based; settings: Homo sapiens
Description: SANGER: Inhibition of human NCI-N87 cell growth in a cell viability assay.

IST-MEL1 = format: functional, cell-based, Homo sapiens; settings: Homo sapiens, IST-MEL1
Description: SANGER: Inhibition of human IST-MEL1 cell growth in a cell viability assay.

NOMO-1 = format: functional, cell-based, Homo sapiens; settings: Homo sapiens, NOMO-1
Description: SANGER: Inhibition of human NOMO-1 cell growth in a cell viability assay.

SK-PN-DW = format: functional, cell-based, Homo sapiens; settings: Homo sapiens, SK-PN-DW
Description: SANGER: Inhibition of human SK-PN-DW cell growth in a cell viability assay.

DU-4475 = format: functional, cell-based, Homo sapiens; settings: Homo sapiens, DU-4475
Description: SANGER: Inhibition of human DU-4475 cell growth in a cell viability assay.

MHH-PREB-1 = format: functional, cell-based, Homo sapiens; settings: Homo sapiens, MHH-PREB-1
Description: SANGER: Inhibition of human MHH-PREB-1 cell growth in a cell viability assay.

HL-60 = format: functional, cell-based, Homo sapiens; settings: Homo sapiens, HL-60
Description: SANGER: Inhibition of human HL-60 cell growth in a cell viability assay.

SCH = format: functional, cell-based, Homo sapiens; settings: Homo sapiens, SCH
Description: SANGER: Inhibition of human SCH cell growth in a cell viability assay.

SNB-75 = format: functional, cell-based, Homo sapiens; settings: Homo sapiens, SNB-75
Description: SANGER: Inhibition of human SNB75 cell growth in a cell viability assay.

OCUB-M = format: functional, cell-based; settings: Homo sapiens
Description: SANGER: Inhibition of human OCUB-M cell growth in a cell viability assay.

ES5 = format: functional, cell-based, Homo sapiens; settings: Homo sapiens, ES5
Description: SANGER: Inhibition of human ES5 cell growth in a cell viability assay.

MC116 = format: functional, cell-based, Homo sapiens; settings: Homo sapiens, MC116
Description: SANGER: Inhibition of human MC116 cell growth in a cell viability assay.

TK-10 = format: functional, cell-based, Homo sapiens; settings: Homo sapiens, TK-10
Description: SANGER: Inhibition of human TK10 cell growth in a cell viability assay.

HT-144 = format: functional, cell-based, Homo sapiens; settings: Homo sapiens, HT-144
Description: SANGER: Inhibition of human HT-144 cell growth in a cell viability assay.

GAK = format: functional, cell-based, Homo sapiens; settings: Homo sapiens, GAK
Description: SANGER: Inhibition of human GAK cell growth in a cell viability assay.

NB13 = format: functional, cell-based, Homo sapiens; settings: Homo sapiens, NB13
Description: SANGER: Inhibition of human NB13 cell growth in a cell viability assay.

Becker = format: functional, cell-based, Homo sapiens; settings: Homo sapiens, Becker
Description: SANGER: Inhibition of human Becker cell growth in a cell viability assay.

U-87 MG = format: functional, cell-based, Homo sapiens, U-87MG ATCC; settings: Homo sapiens, U-87 MG
Description: SANGER: Inhibition of human U-87-MG cell growth in a cell viability assay.

DSH1 = format: functional, cell-based; settings: Homo sapiens
Description: SANGER: Inhibition of human DSH1 cell growth in a cell viability assay.

MEG-01 = format: functional, cell-based, Homo sapiens; settings: Homo sapiens, MEG-01
Description: SANGER: Inhibition of human MEG-01 cell growth in a cell viability assay.

MMAC-SF = format: functional, cell-based; settings: Homo sapiens
Description: SANGER: Inhibition of human MMAC-SF cell growth in a cell viability assay.

BB49-HNC = format: functional, cell-based, Homo sapiens; settings: Homo sapiens, BB49-HNC
Description: SANGER: Inhibition of human BB49-HNC cell growth in a cell viability assay.

GT3TKB = format: functional, cell-based, Homo sapiens; settings: Homo sapiens, GT3TKB
Description: SANGER: Inhibition of human GT3TKB cell growth in a cell viability assay.

ES4 = format: functional, cell-based, Homo sapiens; settings: Homo sapiens, ES4
Description: SANGER: Inhibition of human ES4 cell growth in a cell viability assay.

LNCaP-Clone-FGC = format: functional, cell-based, Homo sapiens; settings: Homo sapiens, LNCaP-Clone-FGC
Description: SANGER: Inhibition of human LNCaP-Clone-FGC cell growth in a cell viability assay.

BB65-RCC = format: functional, cell-based, Homo sapiens; settings: Homo sapiens, BB65-RCC
Description: SANGER: Inhibition of human BB65-RCC cell growth in a cell viability assay.

BB30-HNC = format: functional, cell-based, Homo sapiens; settings: Homo sapiens, BB30-HNC
Description: SANGER: Inhibition of human BB30-HNC cell growth in a cell viability assay.

KS-1 = format: functional, cell-based; settings: Homo sapiens
Description: SANGER: Inhibition of human KS-1 cell growth in a cell viability assay.

EW-11 = format: functional, cell-based, Homo sapiens; settings: Homo sapiens, EW-11
Description: SANGER: Inhibition of human EW-11 cell growth in a cell viability assay.

MLMA = format: functional, cell-based, Homo sapiens; settings: Homo sapiens, MLMA
Description: SANGER: Inhibition of human MLMA cell growth in a cell viability assay.

no-10 = format: functional, cell-based, Homo sapiens; settings: Homo sapiens
Description: SANGER: Inhibition of human no-10 cell growth in a cell viability assay.

RPMI-8226 = format: functional, cell-based, Homo sapiens; settings: Homo sapiens, RPMI-8226
Description: SANGER: Inhibition of human RPMI-8226 cell growth in a cell viability assay.

LB771-HNC = format: functional, cell-based; settings: Homo sapiens
Description: SANGER: Inhibition of human LB771-HNC cell growth in a cell viability assay.

KP-N-YS = format: functional, cell-based, Homo sapiens; settings: Homo sapiens, KP-N-YS
Description: SANGER: Inhibition of human KP-N-YS cell growth in a cell viability assay.

PSN1 = format: functional, cell-based, Homo sapiens; settings: Homo sapiens, PSN1
Description: SANGER: Inhibition of human PSN1 cell growth in a cell viability assay.

ETK-1 = format: functional, cell-based, Homo sapiens; settings: Homo sapiens, ETK-1
Description: SANGER: Inhibition of human ETK-1 cell growth in a cell viability assay.

NCI-H209 = format: functional, cell-based, Homo sapiens; settings: Homo sapiens, NCI-H209
Description: SANGER: Inhibition of human NCI-H209 cell growth in a cell viability assay.

JAR = format: functional, cell-based, Homo sapiens; settings: Homo sapiens, JAR
Description: SANGER: Inhibition of human JAR cell growth in a cell viability assay.

SW 962 = format: functional, cell-based, Homo sapiens; settings: Homo sapiens, SW 962
Description: SANGER: Inhibition of human SW962 cell growth in a cell viability assay.

HOP-62 = format: functional, cell-based, Homo sapiens; settings: Homo sapiens, HOP-62
Description: SANGER: Inhibition of human HOP-62 cell growth in a cell viability assay.

HD-MY-Z = format: functional, cell-based, Homo sapiens; settings: Homo sapiens, HD-MY-Z
Description: SANGER: Inhibition of human HD-MY-Z cell growth in a cell viability assay.

A704 = format: functional, cell-based; settings: Homo sapiens
Description: SANGER: Inhibition of human A704 cell growth in a cell viability assay.

## O=C1NC(=O)c2c1c(-c1ccccc1Cl)cc1[nH]c3ccc(O)cc3c21
8-MG-BA
  IC50: 1.55 µM
A498
  IC50: > 2 µM
D283 Med
  IC50: > 2 µM
TE-1
  IC50: > 2 µM
LS-411N
  IC50: > 2 µM
C2BBe1
  IC50: > 2 µM
SJSA-1
  IC50: > 2 µM
A3-KAW
  IC50: 0.516 µM
D-247MG
  IC50: > 2 µM
NCI-N87
  IC50: > 2 µM
IST-MEL1
  IC50: > 2 µM
NOMO-1
  IC50: > 2 µM
SK-PN-DW
  IC50: > 2 µM
DU-4475
  IC50: > 2 µM
MHH-PREB-1
  IC50: 0.523 µM
HL-60
  IC50: > 2 µM
SCH
  IC50: > 2 µM
SNB-75
  IC50: > 2 µM
OCUB-M
  IC50: > 2 µM
ES5
  IC50: > 2 µM
MC116
  IC50: > 2 µM
TK-10
  IC50: > 2 µM
HT-144
  IC50: > 2 µM
GAK
  IC50: > 2 µM
NB13
  IC50: 0.946 µM
Becker
  IC50: > 2 µM
U-87 MG
  IC50: > 2 µM
DSH1
  IC50: > 2 µM
MEG-01
  IC50: > 2 µM
MMAC-SF
  IC50: > 2 µM
BB49-HNC
  IC50: > 2 µM
GT3TKB
  IC50: > 2 µM
ES4
  IC50: 0.924 µM
LNCaP-Clone-FGC
  IC50: > 2 µM
BB65-RCC
  IC50: 1.42 µM
BB30-HNC
  IC50: 1.36 µM
KS-1
  IC50: > 2 µM
EW-11
  IC50: > 2 µM
MLMA
  IC50: 0.541 µM
no-10
  IC50: > 2 µM
RPMI-8226
  IC50: > 2 µM
LB771-HNC
  IC50: > 2 µM
KP-N-YS
  IC50: > 2 µM
PSN1
  IC50: > 2 µM
ETK-1
  IC50: > 2 µM
NCI-H209
  IC50: 0.562 µM
JAR
  IC50: > 2 µM
SW 962
  IC50: > 2 µM

## Cc1cc(N2CCOCC2)cc2[nH]c(-c3c(NC[C@@H](O)c4cccc(Cl)c4)cc[nH]c3=O)nc12
8-MG-BA
  IC50: 3.93 µM
A498
  IC50: > 5.12 µM
D283 Med
  IC50: > 5.12 µM
TE-1
  IC50: 0.754 µM
LS-411N
  IC50: 0.498 µM
HOP-62
  IC50: 0.936 µM
C2BBe1
  IC50: > 5.12 µM
SJSA-1
  IC50: 0.456 µM
A3-KAW
  IC50: 1.93 µM
D-247MG
  IC50: > 5.12 µM
IST-MEL1
  IC50: 4.6 µM
NOMO-1
  IC50: > 5.12 µM
SK-PN-DW
  IC50: 3.43 µM
DU-4475
  IC50: > 5.12 µM
MHH-PREB-1
  IC50: > 5.12 µM
HL-60
  IC50: 0.286 µM
SCH
  IC50: > 5.12 µM
SNB-75
  IC50: 3.43 µM
OCUB-M
  IC50: > 5.12 µM
ES5
  IC50: > 5.12 µM
MC116
  IC50: > 5.12 µM
TK-10
  IC50: 2.26 µM
HT-144
  IC50: 1.82 µM
GAK
  IC50: > 5.12 µM
NB13
  IC50: > 5.12 µM
Becker
  IC50: 4.79 µM
U-87 MG
  IC50: > 5.12 µM
DSH1
  IC50: > 5.12 µM
MEG-01
  IC50: 4.21 µM
MMAC-SF
  IC50: 0.5 µM
BB49-HNC
  IC50: > 5.12 µM
GT3TKB
  IC50: > 5.12 µM
ES4
  IC50: 0.622 µM
LNCaP-Clone-FGC
  IC50: > 5.12 µM
BB65-RCC
  IC50: > 5.12 µM
BB30-HNC
  IC50: 1.12 µM
KS-1
  IC50: 0.102 µM
EW-11
  IC50: > 5.12 µM
MLMA
  IC50: 2.01 µM
no-10
  IC50: > 5.12 µM
RPMI-8226
  IC50: > 5.12 µM
LB771-HNC
  IC50: 0.23 µM
KP-N-YS
  IC50: > 5.12 µM
PSN1
  IC50: 0.395 µM
ETK-1
  IC50: 0.0961 µM
NCI-H209
  IC50: > 5.12 µM
HD-MY-Z
  IC50: > 5.12 µM
JAR
  IC50: > 5.12 µM
A704
  IC50: 1.04 µM
SW 962
  IC50: 1.2 µM
